# Results taken from US5916905A, “2,3-substituted pyridines for the treatment of inflammation” (G. D. Searle & Co., priority 1997, dated 1999).
# Key:
# COX-2 = molecular target: T1, COX-2 (Homo sapiens, UniProt P35354); test: COX-2 activity in vitro, recombinant human enzyme (PGE2 ELISA); format: biochemical; conditions: human (h); 10 μM arachidonic acid, 10-20 min pre-incubation; read-out: COX-2 ID50
# T1 construct: A 2.0 kb fragment containing the coding region; made in house; host or cells: SF9 insect cells (baculovirus, pVL1393)
# T1 sequence (P35354 18-604): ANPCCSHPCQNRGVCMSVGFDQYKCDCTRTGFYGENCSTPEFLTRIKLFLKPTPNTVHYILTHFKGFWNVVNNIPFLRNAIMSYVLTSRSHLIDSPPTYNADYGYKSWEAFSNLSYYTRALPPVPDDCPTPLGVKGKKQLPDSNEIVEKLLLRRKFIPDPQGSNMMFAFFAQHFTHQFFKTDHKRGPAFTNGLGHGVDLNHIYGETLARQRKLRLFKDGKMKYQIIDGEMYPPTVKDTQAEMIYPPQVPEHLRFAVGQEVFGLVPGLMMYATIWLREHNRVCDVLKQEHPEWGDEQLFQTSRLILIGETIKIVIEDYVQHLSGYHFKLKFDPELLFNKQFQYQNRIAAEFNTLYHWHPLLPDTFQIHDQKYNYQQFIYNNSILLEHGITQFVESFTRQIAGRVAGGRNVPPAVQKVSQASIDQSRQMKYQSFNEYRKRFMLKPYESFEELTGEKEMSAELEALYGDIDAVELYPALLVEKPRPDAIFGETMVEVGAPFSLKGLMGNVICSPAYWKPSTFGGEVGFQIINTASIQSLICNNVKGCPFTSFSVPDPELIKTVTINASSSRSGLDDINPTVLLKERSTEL
# Description: (§1) The COX-2 inhibition activity of the compounds of this invention illustrated in the Examples was determined by the following methods.
# (§2) Recombinant COX-1 and COX-2 were prepared as described by Gierse et al, [J. Biochem., 305, 479-84 (1995)]. A 2.0 kb fragment containing the coding region of either human or murine COX-1 or human or murine COX-2 was cloned into a BamH1 site of the baculovirus transfer vector pVL1393 (Invitrogen) to generate the baculovirus transfer vectors for COX-1 and COX-2 in a manner similar to the method of D. R. O'Reilly et al (Baculovirus Expression Vectors: A Laboratory Manual (1992)). Recombinant baculoviruses were isolated by transfecting 4 μg of baculovirus transfer vector DNA into SF9 insect cells (2×10^8) along with 200 ng of linearized baculovirus plasmid DNA by the calcium phosphate method. See M. D. Summers and G. E. Smith, A Manual of Methods for Baculovirus Vectors and Insect Cell Culture Procedures, Texas Agric. Exp. Station Bull. 1555 (1987). Recombinant viruses were purified by three rounds of plaque purification and high titer (10^7 -10^8 pfu/ml) stocks of virus were prepared. For large scale production, SF9 insect cells were infected in 10 liter fermentors (0.5×10^6 /ml) with the recombinant baculovirus stock such that the multiplicity of infection was 0.1. After 72 hours the cells were centrifuged and the cell pellet homogenized in Tris/Sucrose (50 mM: 25%, pH 8.0) containing 1% 3-[(3-cholamidopropyl)dimethylammonio]-1-propanesulfonate (CHAPS). The homogenate was centrifuged at 10,000×G for 30 minutes, and the resultant supernatant was stored at -80° C. before being assayed for COX activity.
# (§3) b. Assay for COX-1 and COX-2 activity COX activity was assayed as PGE2 formed/μg protein/time using an ELISA to detect the prostaglandin released. CHAPS-solubilized insect cell membranes containing the appropriate COX enzyme were incubated in a potassium phosphate buffer (50 mM, pH 8.0) containing epinephrine, phenol, and heme with the addition of arachidonic acid (10 μM). Compounds were pre-incubated with the enzyme for 10-20 minutes prior to the addition of arachidonic acid. Any reaction between the arachidonic acid and the enzyme was stopped after ten minutes at 37° C./room temperature by transferring 40 μl of reaction mix into 160 μl ELISA buffer and 25 μM indomethacin. The PGE2 formed was measured by standard ELISA technology (Cayman Chemical).
# COX-1 = molecular target: T2, COX-1 (Homo sapiens, UniProt P23219); test: COX-1 activity in vitro, recombinant human enzyme (PGE2 ELISA); format: biochemical; conditions: human (h); 10 μM arachidonic acid, 10-20 min pre-incubation; read-out: COX-1 ID50
# T2 construct: A 2.0 kb fragment containing the coding region; made in house; host or cells: SF9 insect cells (baculovirus, pVL1393)
# Description: as §1, §2, §3
# T2 sequence (P23219 24-599): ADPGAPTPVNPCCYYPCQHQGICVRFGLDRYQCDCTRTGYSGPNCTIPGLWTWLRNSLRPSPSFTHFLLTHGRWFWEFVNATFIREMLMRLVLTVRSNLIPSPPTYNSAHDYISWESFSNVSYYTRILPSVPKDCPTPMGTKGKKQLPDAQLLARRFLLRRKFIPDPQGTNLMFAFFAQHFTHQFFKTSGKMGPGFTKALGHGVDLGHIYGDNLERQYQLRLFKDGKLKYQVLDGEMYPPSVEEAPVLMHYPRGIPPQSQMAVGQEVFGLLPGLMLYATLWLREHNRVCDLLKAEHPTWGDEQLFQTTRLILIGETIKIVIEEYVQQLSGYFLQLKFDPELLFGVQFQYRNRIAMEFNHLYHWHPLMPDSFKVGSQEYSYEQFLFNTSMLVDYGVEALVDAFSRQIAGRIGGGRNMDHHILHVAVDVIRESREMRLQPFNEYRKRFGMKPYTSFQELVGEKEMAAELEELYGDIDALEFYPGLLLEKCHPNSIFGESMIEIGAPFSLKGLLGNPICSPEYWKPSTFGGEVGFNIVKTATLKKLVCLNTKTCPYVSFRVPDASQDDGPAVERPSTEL
SMILES,IC50 (COX-2),IC50 (COX-1)
"CCCCCCOc1nc(-c2ccc(F)cc2)c(-c2ccc(S(C)(=O)=O)cc2)cc1C#N [Example 18, 6-(4-Fluorophenyl)-2-hexyloxy-5-[4-(methylsulfonyl)phenyl]pyridine-3-carbonitrile]",200 nM,> 100000 nM
"CCCCOc1nc(-c2ccc(F)cc2)c(-c2ccc(S(C)(=O)=O)cc2)cc1C(F)F [Example 31, 2-Butoxy-3-difluoromethyl-6-(4-fluorophenyl)-5-[4-(methylsulfonyl)phenyl]pyridine]",< 100 nM,> 100000 nM
"CNc1nc(-c2ccc(F)cc2)c(-c2ccc(S(C)(=O)=O)cc2)cc1C#N [Example 16, 6-(4-Fluorophenyl)-2-(methylamino)-5-[4-(methylsulfonyl)phenyl]pyridine-3-carbonitrile]",2300 nM,> 100000 nM
CCCCOc1nc(-c2ccc(F)cc2)c(-c2ccc(S(C)(=O)=O)cc2)cc1CNC(C)=O [Example 33],1400 nM,> 100000 nM
"CN(C)c1nc(-c2ccc(F)cc2)c(-c2ccc(S(C)(=O)=O)cc2)cc1C#N [Example 12, 2-(Dimethylamino)-6-(4-fluorophenyl)-5-[4-(methylsulfonyl)phenyl]pyridine-3-carbonitrile]",600 nM,> 100000 nM
"COc1ccc(-c2nc(OC)c(C#N)cc2-c2ccc(S(C)(=O)=O)cc2)cc1 [Example 11, 2-Methoxy-6-(4-methoxyphenyl)-5-[4-(methylsulfonyl)phenyl]pyridine-3-carbonitrile]",400 nM,> 100000 nM
"CCCCOc1nc(-c2ccc(F)cc2)c(-c2ccc(S(C)(=O)=O)cc2)cc1COC(=O)C(C)(C)C [Example 41, [2-Butoxy-6-(4-fluorophenyl)-5-[4-(methylsulfonyl)phenyl]pyridin-3-yl]methyl-2,2-propanoate]",> 100000 nM,> 100000 nM
"CCCCOc1nc(-c2ccc(F)cc2)c(-c2ccc(S(C)(=O)=O)cc2)cc1CN(C)C [Example 37, 2-Butoxy-6-(4-fluorophenyl)-N,N-dimethyl-5-[4-(methylsulfonyl)phenyl]pyridine-3-methanamine]",800 nM,> 100000 nM
"CCCCCOc1nc(-c2ccc(F)cc2)c(-c2ccc(S(C)(=O)=O)cc2)cc1C#N [Example 24, 6-(4-Fluorophenyl)-5-[4-(methylsulfonyl)phenyl]-2-pentoxypyridine-3-carbonitrile]",< 100 nM,> 100000 nM
"CS(=O)(=O)c1ccc(-c2cc(C#N)c(OCCCC(F)(F)F)nc2-c2ccc(F)cc2)cc1 [Example 27, 6-(4-Fluorophenyl)-5-[4-(methylsulfonyl)phenyl]-2-(4,4,4-trifluorobutoxy)pyridine-3-carbonitrile]",200 nM,> 100000 nM
"C=CCOc1nc(-c2ccc(F)cc2)c(-c2ccc(S(C)(=O)=O)cc2)cc1C#N [Example 17, 6-(4-Fluorophenyl)-5-[4-(methylsulfonyl)phenyl]-2-[(2-propenyl)oxy]pyridine-3-carbonitrile]",< 100 nM,> 100000 nM
"CS(=O)(=O)c1ccc(-c2ccc(N=[N+]=[N-])nc2-c2ccc(F)cc2)cc1 [Example 6, 2-Azido-6-(4-fluorophenyl)-5-[4-(methylsulfonyl)phenyl]pyridine]",2000 nM,> 100000 nM
"CSc1nc(-c2ccc(F)cc2)c(-c2ccc(S(C)(=O)=O)cc2)cc1C#N [Example 13, 6-(4-Fluorophenyl)-5-[4-(methylsulfonyl)phenyl]-2-(methylthio)pyridine-3-carbonitrile]",200 nM,> 100000 nM
"CS(=O)(=O)c1ccc(-c2cc(C#N)c(OCc3ccccc3)nc2-c2ccc(F)cc2)cc1 [Example 15, 6-(4-Fluorophenyl)-5-[4-(methylsulfonyl)phenyl]-2-(phenylmethoxy)pyridine-3-carbonitrile]",< 100 nM,> 100000 nM
"CCCCOc1nc(-c2ccc(F)cc2)c(-c2ccc(S(C)(=O)=O)cc2)cc1CNC [Example 42, 2-Butoxy-6-(4-fluorophenyl)-N-methyl-5-[4-(methylsulfonyl)phenyl]pyridine-3-methanamine]",3000 nM,> 100000 nM
"CCCCOc1nc(-c2ccc(F)cc2)c(-c2ccc(S(C)(=O)=O)cc2)cc1C(C)OC(=O)CCC (racemic) [Example 44, (+/-) 1-[2-Butoxy-6-(4-fluorophenyl)-5-[4-(methylsulfonyl)phenyl]pyridin-3-yl]ethylbutanoate]",2000 nM,> 100000 nM
"CCCCOc1nc(-c2ccc(F)cc2)c(-c2ccc(S(C)(=O)=O)cc2)cc1CO [Example 29, 2-Butoxy-6-(4-fluorophenyl)-5-[4-(methylsulfonyl)phenyl]pyridine-3-methanol]",< 100 nM,> 100000 nM
"CCCCOc1nc(-c2ccc(F)cc2)c(-c2ccc(S(N)(=O)=O)cc2)cc1C#N [Example 28, 4-[6-butoxy-4-cyano-2-(4-Fluorophenyl)-3-pyridine]benzenesulfonamide]",< 100 nM,200 nM
"CSc1ccc(-c2nc(SC)ccc2-c2ccc(S(C)(=O)=O)cc2)cc1 [Example 5, 5-[4-(Methylsulfonyl)phenyl]-2-methylthio-6-[4-(methylthio)phenyl]pyridine]",< 100 nM,> 100000 nM
"CCCCOc1nc(-c2ccc(F)cc2)c(-c2ccc(S(C)(=O)=O)cc2)cc1COC(C)=O [Example 39, 2-Butoxy-6-(4-fluorophenyl)-5-[4-(methylsulfonyl)phenyl]pyridine-3-methanol, acetate]",100 nM,> 100000 nM
CC(C)=CCOc1nc(-c2ccc(F)cc2)c(-c2ccc(S(C)(=O)=O)cc2)cc1C#N [Example 25],100 nM,> 100000 nM
"CCCOc1nc(-c2ccc(F)cc2)c(-c2ccc(S(C)(=O)=O)cc2)cc1C#N [Example 10, 6-(4-Fluorophenyl)-5-[4-(methylsulfonyl)phenyl]-2-propoxypyridine-3-carbonitrile]",200 nM,> 100000 nM
"CCCCOc1nc(-c2ccc(F)cc2)c(-c2ccc(S(C)(=O)=O)cc2)cc1C(C)O (racemic) [Example 43, (+/-) 2-Butoxy-6-(4-fluorophenyl)-α-methyl-5-[4-(methylsulfonyl)phenyl]pyridine-3-methanol]",100 nM,28000 nM
"CCCCOc1nc(-c2ccc(F)cc2)c(-c2ccc(S(C)(=O)=O)cc2)cc1C#N [Example 14, 2-Butoxy-6-(4-fluorophenyl)-5-[4-(methylsulfonyl)phenyl]pyridine-3-carbonitrile]",< 100 nM,> 100000 nM
"CCCCOc1nc(-c2ccc(F)cc2)c(-c2ccc(S(C)(=O)=O)cc2)cc1COC(=O)CCC [Example 40, [2-Butoxy-6-(4-fluorophenyl)-5-[4-(methylsulfonyl)phenyl]pyridin-3-yl]methylbutanoate]",100 nM,> 100000 nM
"CS(=O)(=O)c1ccc(-c2ccc(Cl)nc2-c2ccc(F)cc2)cc1 [Example 1, 2-chloro-6-(4-fluorophenyl)-5-[4-(methylsulfonyl)phenyl]pyridine]",29000 nM,> 100000 nM
"CCCCOc1nc(-c2ccc(F)cc2)c(-c2ccc(S(C)(=O)=O)cc2)cc1CN [Example 32, 2-Butoxy-6-(4-fluorophenyl)-5-[4-(methylsulfonyl)phenyl]pyridine-3-methylamine]",1600 nM,> 100000 nM
